{"source": "patent US20260248972A1", "about": "“DUAL RECEPTOR TARGETING RADIOLIGANDS AND USES THEREOF RELATED APPLICATIONS” (priority 2022, published 2026)", "key": {"[1]": {"target": "T1, SSTR2 (Rattus norvegicus, UniProt P30680)", "T1 construct": "host or cells: AR42J cells", "T1 sequence (P30680 whole entry)": "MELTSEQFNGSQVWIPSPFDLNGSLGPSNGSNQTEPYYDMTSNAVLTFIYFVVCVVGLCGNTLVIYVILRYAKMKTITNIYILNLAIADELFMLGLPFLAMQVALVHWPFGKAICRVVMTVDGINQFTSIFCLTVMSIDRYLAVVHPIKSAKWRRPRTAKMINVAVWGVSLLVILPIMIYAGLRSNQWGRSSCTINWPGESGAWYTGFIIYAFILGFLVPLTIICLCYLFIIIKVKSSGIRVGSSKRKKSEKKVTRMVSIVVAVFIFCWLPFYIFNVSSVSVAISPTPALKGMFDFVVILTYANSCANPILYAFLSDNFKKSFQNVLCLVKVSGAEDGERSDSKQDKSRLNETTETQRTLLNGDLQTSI", "assay": "Competitive cell-binding assay on AR42J cells with 125I-C1 as competitive ligand", "description": "(§1) AR42J cells (ATCC) were maintained in RPMI-1640 medium (Gibco) supplemented with 15% fetal bovine serum (Gibco) and 1% penicillin-streptomycin (BI) at 37° C. in a humidified incubator with 5% CO2. The culture medium was replaced with fresh medium every 2-3 days. Experiments were performed with cells at 70-80% confluence.\n(§2) Binding Affinity Tested by Using ^125I-Labeled Competitive Ligands.\n(§3) The binding affinities of test compounds were determined by a competitive cell-binding assay using ^125I-C1 and ^125I-C3 as the competitive ligand. The suspended AR42J cells at a density of 1~3×10^6 cells/mL in binding buffer (RPMI-1640 medium supplemented with 0.25% bovine serum albumin) were transferred to a MultiScreen-DV Filter Plate (Millipore) with 100 μL per well except the blank group where the binding buffer was used instead. The cells were then incubated with ^125I-C1 and ^125I-C3 (0.02 μCi/well) in the presence of increasing concentrations (0-10000 nM) of test compounds at 37° C. for 1 h (n=3). The final volume in each well was maintained at 200 μL and insufficient volume was adjusted by the binding buffer. After the 1 h incubation, unbound ^125I-competitive ligands were removed by filtration using a Multiscreen vacuum manifold (Millipore) followed by rinses with the binding buffer (3 times). The filters were collected, and their radioactivity were individually measured by γ counter (2480 WIZARD2, PerkinElmer). The best-fit IC50value (inhibitory concentration when 50% of the bound ^125I-C1 and ^125l I-C3 on cells were displaced) of test compounds were calculated by fitting the data with nonlinear regression using GraphPad Prism 8.0.1."}, "[2]": {"target": "T2, CCK2R (Rattus norvegicus, UniProt P30553)", "T2 construct": "host or cells: AR42J cells", "T2 sequence (P30553 1-452)": "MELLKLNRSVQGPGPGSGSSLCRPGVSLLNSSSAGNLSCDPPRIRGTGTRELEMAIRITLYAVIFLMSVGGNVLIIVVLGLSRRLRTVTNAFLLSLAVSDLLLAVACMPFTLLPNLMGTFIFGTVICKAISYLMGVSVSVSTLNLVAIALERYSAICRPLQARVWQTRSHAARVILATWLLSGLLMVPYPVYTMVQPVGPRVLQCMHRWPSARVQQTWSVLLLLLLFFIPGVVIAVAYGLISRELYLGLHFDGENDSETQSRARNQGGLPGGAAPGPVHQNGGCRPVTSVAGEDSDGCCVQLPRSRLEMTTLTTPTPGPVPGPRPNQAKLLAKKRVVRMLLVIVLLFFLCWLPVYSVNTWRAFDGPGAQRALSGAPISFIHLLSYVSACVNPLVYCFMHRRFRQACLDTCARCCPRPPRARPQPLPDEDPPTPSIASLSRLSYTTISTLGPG", "assay": "Competitive cell-binding assay on AR42J cells with 125I-C3 as competitive ligand", "conditions": "based on mean IC50, C-2 = 1.00", "description": "as §1, §2, §3"}}, "note": "pIC50: −log10 of the molar value.", "data": [{"compound": "C[C@@H](O)[C@H](NC(=O)[C@@H]1CSSC[C@H](NC(=O)[C@@H](Cc2ccccc2)NC(=O)CN2CCN(CC(=O)O)CCN(CC(=O)O)CCN(CC(=O)O)CC2)C(=O)N[C@@H](Cc2ccc(O)cc2)C(=O)N[C@H](Cc2c[nH]c3ccccc23)C(=O)N[C@@H](CCCCN)C(=O)N[C@@H]([C@@H](C)O)C(=O)N1)C(=O)O", "note": "[Compound C-1, DOTA-f[CYwKTC]T-OH, reference compound]", "values": [{"measurement": "pIC50", "setting": "[1]", "value": 8.55}]}, {"compound": "CC(C)(C)C(=O)CN1C(=O)[C@H](NC(=O)Nc2cccc(C(=O)N[C@@H](CCC(=O)N[C@@H](CCC(=O)N[C@@H](CCC(=O)N[C@@H](CCCCNC(=O)COCCOCCNC(=O)COCCOCCNC(=O)CCC(C(=O)O)N3CCN(CC(=O)O)CCN(CC(=O)O)CCN(CC(=O)O)CC3)C(N)=O)C(=O)O)C(=O)O)C(=O)O)c2)CN(C2CCCCC2)c2ccccc21", "note": "(stereo partly drawn) [Compound C-4, Z360-gE-gE-gE-K(-OEG-OEG-DOTAGA)-NH2, reference compound]", "values": [{"measurement": "Relative Binding Affinity CCK2R", "setting": "[2]", "value": 21.9}]}, {"compound": "C[C@@H](O)[C@H](NC(=O)[C@@H]1CSSC[C@H](NC(=O)[C@@H](Cc2ccccc2)NC(=O)COCCOCCNC(=O)COCCOCCNC(=O)[C@H](CCCCNC(=O)CC[C@H](NC(=O)CNC(=O)c2cccc(NC(=O)N[C@@H]3CN(C4CCCCC4)c4ccccc4N(CC(=O)C(C)(C)C)C3=O)c2)C(=O)O)NC(=O)CN2CCN(CC(=O)O)CCN(CC(=O)O)CCN(CC(=O)O)CC2)C(=O)N[C@@H](Cc2ccc(O)cc2)C(=O)N[C@H](Cc2c[nH]c3ccccc23)C(=O)N[C@@H](CCCCN)C(=O)N[C@@H]([C@@H](C)O)C(=O)N1)C(=O)O", "note": "[Compound I-2, DOTA-K(-gE-G-Z360)-OEG-OEG-f[CYwKTC]T-OH]", "values": [{"measurement": "Relative Binding Affinity SSTR2", "setting": "[1]; based on mean IC50, C-1 = 1.00", "value": 2.94}]}]}
